Seven compounds from ChEMBL document CHEMBL1201862, “PubChem BioAssay data set” (2004) can be followed below.

The term EC50 denotes the concentration that produces a half-maximal response. Usually IC50 stands for the concentration that inhibits the measured activity by half. One may read the CC50 as the concentration at which the toxic effect on the cells reaches its halfway point. In general, AC50 refers to the concentration at which the activity in the assay is half-maximal.

Test [1] in a line: inhibitors of intracellular T. cruzi replication, confirmation, NIH3T3 host cells, beta-gal luminescence (AID 2044).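 Further: intracellular parasites grown in NIH/3T3 mouse fibroblasts as host cells; luminescent beta-galactosidase reporter signal from transgenic T. cruzi replicating inside host cells; inhibitors lower the luminescence signal.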 Format: functional, cell-based.
A short description of test [2]: cytotoxicity toward NIH3T3 fibroblasts, dose response, counter-screen, cell-based, ATP luminescence, mouse fibroblasts (AID 2010).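 Further: cells exposed to compound for about 90 hours before reading.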 Format: functional. (In general: The purpose of a counterscreen is to sort out artefacts and off-target activity.)
Test [3] in a line: cells.
Test [4] addresses Serine/threonine-protein phosphatase PP1-alpha catalytic subunit (Homo sapiens, UniProt P62136). Description: PP1 phosphatase inhibitors, dose response, biochemical, fluorescence (AID 2394).
The target in test [5] is T1, Serine/threonine-protein phosphatase (Homo sapiens, UniProt Q9BPW0).
T1 sequence (Q9BPW0 whole entry): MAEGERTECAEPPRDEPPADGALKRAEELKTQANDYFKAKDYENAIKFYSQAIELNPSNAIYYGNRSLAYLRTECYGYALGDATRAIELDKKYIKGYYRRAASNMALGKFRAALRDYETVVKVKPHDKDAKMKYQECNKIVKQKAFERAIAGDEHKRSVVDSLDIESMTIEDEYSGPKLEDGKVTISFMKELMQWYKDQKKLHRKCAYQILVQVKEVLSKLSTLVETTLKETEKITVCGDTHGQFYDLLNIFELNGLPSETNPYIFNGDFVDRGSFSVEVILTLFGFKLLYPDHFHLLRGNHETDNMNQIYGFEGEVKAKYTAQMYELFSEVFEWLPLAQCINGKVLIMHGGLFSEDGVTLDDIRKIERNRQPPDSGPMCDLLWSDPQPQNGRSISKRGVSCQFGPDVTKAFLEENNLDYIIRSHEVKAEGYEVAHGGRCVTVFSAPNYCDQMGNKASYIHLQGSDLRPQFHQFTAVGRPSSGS
Briefly: PP5 phosphatase inhibitors, dose response, biochemical, fluorescence (AID 2395).

Test [6] deals with T2, Caspase-3 (Homo sapiens, UniProt P42574).
T2 sequence (P42574 whole entry): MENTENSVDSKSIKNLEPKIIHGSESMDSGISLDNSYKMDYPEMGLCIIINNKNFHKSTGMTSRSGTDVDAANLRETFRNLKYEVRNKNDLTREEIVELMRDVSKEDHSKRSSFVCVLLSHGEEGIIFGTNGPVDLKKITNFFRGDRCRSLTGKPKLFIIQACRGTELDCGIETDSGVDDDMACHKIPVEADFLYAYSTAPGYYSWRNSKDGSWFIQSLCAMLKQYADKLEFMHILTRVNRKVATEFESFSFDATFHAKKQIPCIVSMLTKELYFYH
Format: functional.

Test [7] has as its target T3, Sentrin-specific protease 7 (Homo sapiens, UniProt Q9BQF6).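 Further: Luminescence-based dose-response confirmation of ultra-high-throughput screening hits, measuring inhibition of SENP7.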
T3 sequence (Q9BQF6 whole entry): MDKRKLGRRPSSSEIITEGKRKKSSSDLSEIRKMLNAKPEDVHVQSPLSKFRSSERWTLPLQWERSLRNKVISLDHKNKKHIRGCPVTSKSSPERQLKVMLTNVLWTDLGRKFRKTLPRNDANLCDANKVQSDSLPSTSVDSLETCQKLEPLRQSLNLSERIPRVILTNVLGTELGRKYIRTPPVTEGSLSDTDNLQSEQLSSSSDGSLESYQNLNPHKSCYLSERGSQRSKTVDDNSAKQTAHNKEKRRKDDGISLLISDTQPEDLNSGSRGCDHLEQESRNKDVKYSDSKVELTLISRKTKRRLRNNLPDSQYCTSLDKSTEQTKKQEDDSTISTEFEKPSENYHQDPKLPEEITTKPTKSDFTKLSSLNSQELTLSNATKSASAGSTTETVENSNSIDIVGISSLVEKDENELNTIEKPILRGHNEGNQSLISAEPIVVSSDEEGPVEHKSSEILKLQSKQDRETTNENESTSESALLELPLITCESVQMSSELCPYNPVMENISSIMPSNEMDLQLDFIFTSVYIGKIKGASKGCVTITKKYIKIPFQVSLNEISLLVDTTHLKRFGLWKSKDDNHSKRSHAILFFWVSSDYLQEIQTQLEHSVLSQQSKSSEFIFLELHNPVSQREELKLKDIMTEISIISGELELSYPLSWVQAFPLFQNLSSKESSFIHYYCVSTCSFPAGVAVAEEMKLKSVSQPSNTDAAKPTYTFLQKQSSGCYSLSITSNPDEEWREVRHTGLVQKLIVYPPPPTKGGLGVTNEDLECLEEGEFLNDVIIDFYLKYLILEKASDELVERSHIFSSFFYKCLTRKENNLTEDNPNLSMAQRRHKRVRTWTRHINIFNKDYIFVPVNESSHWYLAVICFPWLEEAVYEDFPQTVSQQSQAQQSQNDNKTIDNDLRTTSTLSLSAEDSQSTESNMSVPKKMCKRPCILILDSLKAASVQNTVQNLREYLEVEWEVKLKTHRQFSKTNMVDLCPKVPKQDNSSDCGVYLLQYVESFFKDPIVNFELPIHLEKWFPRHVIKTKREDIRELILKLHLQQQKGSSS
Format: functional.

The target of test [8] is T4, Sentrin-specific protease 6 (Homo sapiens, UniProt Q9GZR1).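 Further: Luminescence-based dose-response confirmatory assay of SENP6 inhibition, following up an ultra-high-throughput screen.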
T4 sequence (Q9GZR1 whole entry): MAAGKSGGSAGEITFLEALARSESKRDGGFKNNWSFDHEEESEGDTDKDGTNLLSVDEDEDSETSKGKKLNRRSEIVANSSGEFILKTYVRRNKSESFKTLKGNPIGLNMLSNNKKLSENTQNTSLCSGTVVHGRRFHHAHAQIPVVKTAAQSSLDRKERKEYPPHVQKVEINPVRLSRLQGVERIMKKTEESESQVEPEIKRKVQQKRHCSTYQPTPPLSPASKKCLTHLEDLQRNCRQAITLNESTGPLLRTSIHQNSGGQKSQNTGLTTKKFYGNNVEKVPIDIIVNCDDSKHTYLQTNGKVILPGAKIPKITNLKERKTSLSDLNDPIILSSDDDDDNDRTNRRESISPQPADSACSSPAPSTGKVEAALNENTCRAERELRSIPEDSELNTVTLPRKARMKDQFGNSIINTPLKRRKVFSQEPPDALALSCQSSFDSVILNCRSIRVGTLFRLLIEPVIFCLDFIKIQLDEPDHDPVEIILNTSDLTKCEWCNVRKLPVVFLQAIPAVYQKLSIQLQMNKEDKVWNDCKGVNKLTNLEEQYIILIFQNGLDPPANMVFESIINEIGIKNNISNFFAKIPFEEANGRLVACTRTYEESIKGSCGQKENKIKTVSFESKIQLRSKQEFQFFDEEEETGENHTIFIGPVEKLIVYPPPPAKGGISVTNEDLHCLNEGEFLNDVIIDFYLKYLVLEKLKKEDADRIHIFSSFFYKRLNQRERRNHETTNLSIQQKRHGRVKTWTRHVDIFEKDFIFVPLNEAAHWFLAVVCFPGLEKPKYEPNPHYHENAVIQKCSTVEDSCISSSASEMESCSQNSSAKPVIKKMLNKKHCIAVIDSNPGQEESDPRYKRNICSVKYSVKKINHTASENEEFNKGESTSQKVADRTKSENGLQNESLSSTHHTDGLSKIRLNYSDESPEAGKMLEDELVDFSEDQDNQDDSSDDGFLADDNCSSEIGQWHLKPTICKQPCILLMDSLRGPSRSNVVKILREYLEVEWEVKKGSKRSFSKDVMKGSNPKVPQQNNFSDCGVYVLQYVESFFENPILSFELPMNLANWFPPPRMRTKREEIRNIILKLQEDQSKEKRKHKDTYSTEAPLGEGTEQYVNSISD
Format: functional.

Test [9] addresses T5, Sentrin-specific protease 8 (Homo sapiens, UniProt Q96LD8).
T5 sequence (Q96LD8 whole entry): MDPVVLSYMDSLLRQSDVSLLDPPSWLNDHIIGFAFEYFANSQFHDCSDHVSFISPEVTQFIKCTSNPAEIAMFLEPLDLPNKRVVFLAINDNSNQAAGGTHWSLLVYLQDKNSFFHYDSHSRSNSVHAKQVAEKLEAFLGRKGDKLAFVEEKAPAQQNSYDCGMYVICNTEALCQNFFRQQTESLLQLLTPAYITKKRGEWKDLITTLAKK
Format: functional.

For test [10], the target named is Peroxisome proliferator-activated receptor gamma/Nuclear receptor coactivator 2 (Homo sapiens, UniProt P37231). Format: functional.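 Further: agonist potency for raising coactivator recruitment to the receptor.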
Peroxisome proliferator-activated receptor gamma/Nuclear receptor coactivator 2, sequence (P37231 whole entry): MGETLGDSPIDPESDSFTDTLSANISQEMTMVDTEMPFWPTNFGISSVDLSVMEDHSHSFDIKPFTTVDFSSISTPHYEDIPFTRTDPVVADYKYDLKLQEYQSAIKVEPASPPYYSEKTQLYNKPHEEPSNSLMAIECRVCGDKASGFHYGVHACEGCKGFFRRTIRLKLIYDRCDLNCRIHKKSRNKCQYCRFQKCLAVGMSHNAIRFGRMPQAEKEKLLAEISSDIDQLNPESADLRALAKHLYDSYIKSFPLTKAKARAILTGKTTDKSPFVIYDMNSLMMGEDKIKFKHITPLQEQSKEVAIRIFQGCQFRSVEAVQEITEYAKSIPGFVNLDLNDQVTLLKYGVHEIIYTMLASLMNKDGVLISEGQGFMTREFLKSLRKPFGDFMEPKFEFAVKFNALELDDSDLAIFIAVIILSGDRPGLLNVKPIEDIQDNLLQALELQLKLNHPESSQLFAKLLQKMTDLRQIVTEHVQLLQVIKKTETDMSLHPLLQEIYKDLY
Peroxisome proliferator-activated receptor gamma/Nuclear receptor coactivator 2, sequence (Q15596 whole entry, further chain): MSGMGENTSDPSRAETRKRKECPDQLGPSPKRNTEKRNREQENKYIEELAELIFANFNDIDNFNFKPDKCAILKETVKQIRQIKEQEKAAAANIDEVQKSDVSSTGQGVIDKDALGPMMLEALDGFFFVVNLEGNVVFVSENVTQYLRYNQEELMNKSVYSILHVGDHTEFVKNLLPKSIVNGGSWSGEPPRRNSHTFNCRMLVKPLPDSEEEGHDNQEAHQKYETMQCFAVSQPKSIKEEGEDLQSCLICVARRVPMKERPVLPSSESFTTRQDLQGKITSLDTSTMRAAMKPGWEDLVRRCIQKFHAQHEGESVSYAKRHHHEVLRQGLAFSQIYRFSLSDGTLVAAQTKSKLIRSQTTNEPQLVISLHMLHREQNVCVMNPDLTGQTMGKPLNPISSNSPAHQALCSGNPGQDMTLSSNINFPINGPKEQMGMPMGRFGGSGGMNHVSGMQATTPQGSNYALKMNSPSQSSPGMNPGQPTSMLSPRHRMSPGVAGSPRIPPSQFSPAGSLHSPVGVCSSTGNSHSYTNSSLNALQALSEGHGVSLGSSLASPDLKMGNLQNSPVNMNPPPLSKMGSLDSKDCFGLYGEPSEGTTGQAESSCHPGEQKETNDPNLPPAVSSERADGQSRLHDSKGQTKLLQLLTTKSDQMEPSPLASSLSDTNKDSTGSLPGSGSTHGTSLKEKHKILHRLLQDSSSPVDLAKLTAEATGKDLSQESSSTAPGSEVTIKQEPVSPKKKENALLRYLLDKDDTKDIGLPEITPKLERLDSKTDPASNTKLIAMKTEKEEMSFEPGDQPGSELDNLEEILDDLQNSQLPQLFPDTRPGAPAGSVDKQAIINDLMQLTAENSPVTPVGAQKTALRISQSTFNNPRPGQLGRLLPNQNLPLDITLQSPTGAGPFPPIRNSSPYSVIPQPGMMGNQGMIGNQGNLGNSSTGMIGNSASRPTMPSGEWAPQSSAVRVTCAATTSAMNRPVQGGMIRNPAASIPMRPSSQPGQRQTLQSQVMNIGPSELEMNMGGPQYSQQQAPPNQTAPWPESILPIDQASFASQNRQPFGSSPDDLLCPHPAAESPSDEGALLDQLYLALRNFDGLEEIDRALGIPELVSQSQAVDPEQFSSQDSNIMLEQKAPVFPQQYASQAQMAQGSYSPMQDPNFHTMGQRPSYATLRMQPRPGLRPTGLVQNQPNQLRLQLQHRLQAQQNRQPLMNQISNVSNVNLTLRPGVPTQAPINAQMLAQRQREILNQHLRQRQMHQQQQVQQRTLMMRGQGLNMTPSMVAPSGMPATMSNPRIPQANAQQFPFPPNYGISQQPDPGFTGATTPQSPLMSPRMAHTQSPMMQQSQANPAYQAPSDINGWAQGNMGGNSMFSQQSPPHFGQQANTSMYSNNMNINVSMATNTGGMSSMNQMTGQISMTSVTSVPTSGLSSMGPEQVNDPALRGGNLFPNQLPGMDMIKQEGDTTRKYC
The target in test [11] is Peroxisome proliferator-activated receptor gamma/Nuclear receptor coactivator 1 (Homo sapiens, UniProt P37231). Format: functional.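 Further: agonist potency as compounds enhance coactivator SRC-1 recruitment to PPARgamma.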
Peroxisome proliferator-activated receptor gamma/Nuclear receptor coactivator 1, sequence (P37231 whole entry): as the sequence (P37231 whole entry) above
Peroxisome proliferator-activated receptor gamma/Nuclear receptor coactivator 1, sequence (Q15788 whole entry, further chain): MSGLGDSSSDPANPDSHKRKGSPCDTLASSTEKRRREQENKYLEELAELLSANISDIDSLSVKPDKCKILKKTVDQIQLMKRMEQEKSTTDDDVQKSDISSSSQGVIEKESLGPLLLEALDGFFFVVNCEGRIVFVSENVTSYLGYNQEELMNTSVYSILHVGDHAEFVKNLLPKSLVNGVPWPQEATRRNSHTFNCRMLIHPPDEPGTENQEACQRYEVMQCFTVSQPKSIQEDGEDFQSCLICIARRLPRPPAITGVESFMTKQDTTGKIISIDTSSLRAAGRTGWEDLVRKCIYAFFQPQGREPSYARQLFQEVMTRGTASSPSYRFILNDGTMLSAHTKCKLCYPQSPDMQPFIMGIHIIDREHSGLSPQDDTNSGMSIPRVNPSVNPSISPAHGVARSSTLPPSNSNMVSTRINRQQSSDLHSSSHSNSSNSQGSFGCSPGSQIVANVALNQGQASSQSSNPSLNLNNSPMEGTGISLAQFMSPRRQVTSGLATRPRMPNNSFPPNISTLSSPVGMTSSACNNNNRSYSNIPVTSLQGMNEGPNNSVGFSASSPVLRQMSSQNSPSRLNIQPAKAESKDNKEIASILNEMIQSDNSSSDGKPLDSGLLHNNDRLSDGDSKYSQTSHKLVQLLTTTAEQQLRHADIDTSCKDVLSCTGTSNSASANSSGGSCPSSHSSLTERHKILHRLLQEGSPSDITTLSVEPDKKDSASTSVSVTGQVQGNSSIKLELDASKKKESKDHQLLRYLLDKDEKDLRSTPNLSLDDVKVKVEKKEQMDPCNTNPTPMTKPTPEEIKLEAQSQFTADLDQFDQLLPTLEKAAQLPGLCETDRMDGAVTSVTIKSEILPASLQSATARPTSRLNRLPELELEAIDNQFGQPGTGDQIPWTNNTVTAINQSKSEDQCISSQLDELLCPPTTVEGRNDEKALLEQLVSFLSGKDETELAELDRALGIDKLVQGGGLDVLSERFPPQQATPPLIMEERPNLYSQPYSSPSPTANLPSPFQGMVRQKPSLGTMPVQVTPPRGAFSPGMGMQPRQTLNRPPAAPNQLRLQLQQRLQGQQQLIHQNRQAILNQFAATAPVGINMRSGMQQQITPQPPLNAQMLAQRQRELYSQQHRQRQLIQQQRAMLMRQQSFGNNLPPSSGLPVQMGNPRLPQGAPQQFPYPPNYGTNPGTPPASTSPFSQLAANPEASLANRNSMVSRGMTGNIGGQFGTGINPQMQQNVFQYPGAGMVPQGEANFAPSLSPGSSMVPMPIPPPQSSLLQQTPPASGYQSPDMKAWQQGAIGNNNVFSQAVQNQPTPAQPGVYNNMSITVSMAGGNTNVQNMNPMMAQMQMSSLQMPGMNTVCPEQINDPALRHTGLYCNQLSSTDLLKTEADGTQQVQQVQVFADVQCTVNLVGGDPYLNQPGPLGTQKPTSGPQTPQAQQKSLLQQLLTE
The target of test [12] is Peroxisome proliferator-activated receptor gamma/Nuclear receptor coactivator 3 (Homo sapiens, UniProt P37231). Format: functional.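 Further: agonist potency for raising coactivator recruitment to the receptor.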
Test [13] concerns the target T6, Neuropeptide Y receptor type 1 (Homo sapiens, UniProt P25929).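 Further: HEK293 cells with a CNG channel challenged with NPY then isoproterenol; potency as antagonist that reverses NPY suppression of cAMP signal.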
T6 sequence (P25929 whole entry): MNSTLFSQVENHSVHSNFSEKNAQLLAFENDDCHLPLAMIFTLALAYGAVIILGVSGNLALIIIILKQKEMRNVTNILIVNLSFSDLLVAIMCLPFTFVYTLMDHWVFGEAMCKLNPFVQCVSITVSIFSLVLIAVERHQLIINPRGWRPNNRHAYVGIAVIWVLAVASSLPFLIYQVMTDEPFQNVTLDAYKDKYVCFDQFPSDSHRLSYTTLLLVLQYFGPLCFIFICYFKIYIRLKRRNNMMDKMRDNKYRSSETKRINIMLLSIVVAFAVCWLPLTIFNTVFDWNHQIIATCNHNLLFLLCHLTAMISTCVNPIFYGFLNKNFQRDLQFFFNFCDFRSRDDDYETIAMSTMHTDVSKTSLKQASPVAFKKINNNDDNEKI
Format: functional.

Test [14] concerns the target T7, Neuropeptide Y receptor type 2 (Homo sapiens, UniProt P49146).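 Further: HEK293 cells expressing the receptor and a CNG channel; stimulus was NPY near EC95 followed by isoproterenol to raise cAMP; antagonist potency measured as restoring cAMP signal that NPY suppresses.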
T7 sequence (P49146 whole entry): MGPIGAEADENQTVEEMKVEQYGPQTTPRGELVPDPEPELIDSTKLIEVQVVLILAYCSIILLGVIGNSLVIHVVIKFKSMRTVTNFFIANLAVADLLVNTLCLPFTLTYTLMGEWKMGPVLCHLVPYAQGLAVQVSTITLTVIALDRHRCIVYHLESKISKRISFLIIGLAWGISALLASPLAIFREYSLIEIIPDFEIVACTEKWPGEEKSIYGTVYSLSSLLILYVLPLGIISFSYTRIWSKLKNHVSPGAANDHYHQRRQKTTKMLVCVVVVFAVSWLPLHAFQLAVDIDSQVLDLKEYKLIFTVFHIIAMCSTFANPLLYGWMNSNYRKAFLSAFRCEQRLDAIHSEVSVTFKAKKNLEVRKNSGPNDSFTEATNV
Format: functional, cell-based.

The nature of test [15]: HEp-2 cell cytotoxicity, dose response, cytotoxicity control for RSV inhibitor project, HTS (AID 2410). Format: functional. The conditions noted are these: human respiratory syncytial virus.
Test [16] concerns Streptococcus sp. 'group A'. Briefly: growth inhibition of control SK(-) GAS strain, dose response, counter-screen for streptokinase expression inhibitor project, luminescence, kanamycin, BacTiterGlo, confirmation (AID 1900). Format: functional, organism-based.
Test [17] deals with T8, Streptokinase A (Streptococcus pyogenes serotype M1, UniProt P10520).
T8 sequence (P10520 whole entry): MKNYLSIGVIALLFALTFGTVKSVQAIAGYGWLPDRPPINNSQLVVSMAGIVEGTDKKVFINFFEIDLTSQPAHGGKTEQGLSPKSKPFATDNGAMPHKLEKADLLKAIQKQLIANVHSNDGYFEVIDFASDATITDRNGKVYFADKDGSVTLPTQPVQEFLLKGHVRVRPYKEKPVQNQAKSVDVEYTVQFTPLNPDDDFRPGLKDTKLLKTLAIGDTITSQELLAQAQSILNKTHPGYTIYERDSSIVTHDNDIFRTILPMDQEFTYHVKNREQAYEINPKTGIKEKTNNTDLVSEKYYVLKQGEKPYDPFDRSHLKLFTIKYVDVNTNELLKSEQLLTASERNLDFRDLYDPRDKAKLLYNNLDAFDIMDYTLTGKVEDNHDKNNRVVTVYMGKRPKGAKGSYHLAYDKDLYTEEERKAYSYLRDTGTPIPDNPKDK
Description: S. pyogenes streptokinase expression inhibitors, potency, dose response, plasminogen activation absorbance, OD405 (AID 1914).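 Further: secreted streptokinase activity via plasminogen activation per viability signal from cell pellet.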 Format: functional, Streptococcus pyogenes M1 GAS.

Test [18] has as its system Streptococcus. Briefly: Group A Streptococcus viability loss, dose response, counter-screen for streptokinase expression inhibitor project, luminescence, BacTiterGlo (AID 1915).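 Further: potency for reduction of bacterial viability or growth.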 Format: functional, organism-based.
Test [19] is described as follows: Luminescence Cell-Based Dose Retest to Confirm Inhibitors of Cancer Stem Cells. [Related pubchem assays (depositor defined):AID2717, AID2721]. Format: functional. Particulars: Homo sapiens.
The nature of test [20]: Luminescence Cell-Based Dose Response HTS to Identify Activators of Luciferase Translation or Activity in H4 […] Cells. [Related pubchem assays: 1829 (Project Summary), 1814 (Primary HTS)]. Format: functional.
Test [21] in a line: Luminescence-based dose response cell-based high throughput screening assay for cytotoxic compounds using the IEC-6 intestinal epithelial cell line. [Related pubchem assays: 1858 (Summary AID.), 1825 (Counterscreen.), 1907 (Confirmation screen.)]. Format: functional.

The source made the active and inactive calls.
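Wherever AC50 is given: cells exposed to compound for roughly 70 hours or longer before luminescence read.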

Serine/threonine-protein phosphatase PP1-alpha catalytic subunit, sequence (P62136 whole entry): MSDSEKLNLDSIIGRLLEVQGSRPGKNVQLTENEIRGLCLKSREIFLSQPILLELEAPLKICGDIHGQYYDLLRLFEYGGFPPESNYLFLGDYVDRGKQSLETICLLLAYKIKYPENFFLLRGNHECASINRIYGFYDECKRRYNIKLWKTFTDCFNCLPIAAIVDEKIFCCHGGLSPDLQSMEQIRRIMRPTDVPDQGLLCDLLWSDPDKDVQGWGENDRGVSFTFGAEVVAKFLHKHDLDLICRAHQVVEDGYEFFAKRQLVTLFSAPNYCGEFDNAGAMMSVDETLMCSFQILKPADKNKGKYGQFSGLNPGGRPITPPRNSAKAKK

Take `CCOc1ccc(OCC(O)CNC2CCN(Cc3ccccc3)CC2)cc1` (stereo not drawn): the EC50 in [1] is < 0.1 µM (active); in test [2], 9.8 µM (active); in test [3], 0.255 µM (active).

Take `CN1CC[C@@]2(C)c3cc(O)ccc3N(C)C2O1` (stereo partly drawn): the IC50 was 52.3 µM (not active) in test [4]; > 7.45 µM (active) in test [5]; > 100 µM (inactive) in [6]; 14.3 µM (active) in [7]; 11.9 µM (active) in test [8]; 10.7 µM (active) in [9].

As to `O=C(CSc1ccc2nnc(-c3ccc(Cl)cc3)n2n1)N1CCCc2ccccc21`, the EC50 in test [10] was 27.4 µM (not active); in test [11], 50.1 µM (not active); in test [12] it was 52.3 µM (not active).

As for `CCOc1ccc(NC(=S)N2CCC(C(O)(c3ccccc3)c3ccccc3)CC2)cc1`, the IC50 in test [13] was > 35 µM (not active); in [14], 0.22 µM (active).

As for `CCOC(=O)c1ccc(NC(=O)CCc2nc(-c3ccc(C)cc3)no2)cc1`, the concentration for a half-maximal effect (EC50) in [10], in test [11] and in [12] was > 79.4 µM (not active) each time.

In the case of `CC(C)COC(=O)c1cccc2c1-c1ccccc1/C2=N\O`, the CC50 in test [15] is > 50 µM (active). The IC50 in test [13] is 6.46 µM (active); in [14] it was 4.96 µM (active). For the same compound, the EC50 in test [16] is 4.74 µM (active); in test [17], > 50 µM (not active); in [18], > 150 µM (not active). In addition, the AC50 in test [19] is 5.69 µM (active).

`Cc1ccc(Nc2nc(-c3ccncc3)cs2)cc1`: the EC50 is 0.149 µM (active) in test [20], 0.239 µM (active) in test [1] and 8.83 µM (active) in test [2]. In addition, the IC50 in test [21] is 2.71 µM (active).
